Experiments:
Assay type in all cases: cell-based
[1] = molecular target: T1, Ba/F3 cells with EGFR exon 20 ASV Ins V769_D770 (Homo sapiens, UniProt P00533, INS769ASV); experiment: EGFR activity: Ba/F3 cell viability (CellTiter-Glo, 72 h), EGFR exon 20 ASV insertion; conditions: EGFR exon 20 ASV Ins V769_D770, cell viability, read-out: BaF3 ASV IC50
T1 construct: expressed in transfected cells; host or cells: Ba/F3 (murine pro-B cells), retroviral transduction, puromycin selection, IL3-independent pool

[2] = molecular target: T2, Ba/F3 cells with EGFR WT (Homo sapiens, UniProt P00533); experiment: EGFR activity: Ba/F3 cell viability (CellTiter-Glo, 72 h), EGFR WT; conditions: read-out: BaF3 WT IC50
T2 construct: expressed in transfected cells; host or cells: Ba/F3 (murine pro-B cells), retroviral transduction, puromycin selection, maintained with EGF

[3] = molecular target: T3, pEGFR in CUTO14 cells (Homo sapiens, UniProt P00533, DUP767-769); experiment: Inhibitor activity on EGFR phosphorylation (pEGFR AlphaLISA, 2 h), CUTO14 cells
T3 construct: endogenous in cells; host or cells: CUTO14 cells
Method: CUTO14 cells were obtained from Dr. Robert C. Doebele at the University of Colorado.
Shake 350 rpm for 1 hr in the dark • 3.4 Prepare donor mix under low light conditions prior to use. Dispense 5 μL of donor mix to all the wells. Mix well on the shaker, seal and wrap in aluminum foil and incubate 1.5 hrs at room temperature in the dark • 3.5 Transfer 18.5 μL mixture to OptiPlate 384, and read using an Envision.

[4] = molecular target: T4, Ba/F3 cells with EGFR exon 20 NPG Ins D770_N771 (Homo sapiens, UniProt P00533, INS770NPG); experiment: EGFR activity: Ba/F3 cell viability (CellTiter-Glo, 72 h), EGFR exon 20 NPG insertion; conditions: EGFR exon 20 NPG Ins D770_N771, cell viability, read-out: BaF3 NPG IC50
T4 construct: expressed in transfected cells; host or cells: Ba/F3 (murine pro-B cells), retroviral transduction, puromycin selection, IL3-independent pool
T4 sequence (P00533 with tags, fused parts or gaps INS770NPG): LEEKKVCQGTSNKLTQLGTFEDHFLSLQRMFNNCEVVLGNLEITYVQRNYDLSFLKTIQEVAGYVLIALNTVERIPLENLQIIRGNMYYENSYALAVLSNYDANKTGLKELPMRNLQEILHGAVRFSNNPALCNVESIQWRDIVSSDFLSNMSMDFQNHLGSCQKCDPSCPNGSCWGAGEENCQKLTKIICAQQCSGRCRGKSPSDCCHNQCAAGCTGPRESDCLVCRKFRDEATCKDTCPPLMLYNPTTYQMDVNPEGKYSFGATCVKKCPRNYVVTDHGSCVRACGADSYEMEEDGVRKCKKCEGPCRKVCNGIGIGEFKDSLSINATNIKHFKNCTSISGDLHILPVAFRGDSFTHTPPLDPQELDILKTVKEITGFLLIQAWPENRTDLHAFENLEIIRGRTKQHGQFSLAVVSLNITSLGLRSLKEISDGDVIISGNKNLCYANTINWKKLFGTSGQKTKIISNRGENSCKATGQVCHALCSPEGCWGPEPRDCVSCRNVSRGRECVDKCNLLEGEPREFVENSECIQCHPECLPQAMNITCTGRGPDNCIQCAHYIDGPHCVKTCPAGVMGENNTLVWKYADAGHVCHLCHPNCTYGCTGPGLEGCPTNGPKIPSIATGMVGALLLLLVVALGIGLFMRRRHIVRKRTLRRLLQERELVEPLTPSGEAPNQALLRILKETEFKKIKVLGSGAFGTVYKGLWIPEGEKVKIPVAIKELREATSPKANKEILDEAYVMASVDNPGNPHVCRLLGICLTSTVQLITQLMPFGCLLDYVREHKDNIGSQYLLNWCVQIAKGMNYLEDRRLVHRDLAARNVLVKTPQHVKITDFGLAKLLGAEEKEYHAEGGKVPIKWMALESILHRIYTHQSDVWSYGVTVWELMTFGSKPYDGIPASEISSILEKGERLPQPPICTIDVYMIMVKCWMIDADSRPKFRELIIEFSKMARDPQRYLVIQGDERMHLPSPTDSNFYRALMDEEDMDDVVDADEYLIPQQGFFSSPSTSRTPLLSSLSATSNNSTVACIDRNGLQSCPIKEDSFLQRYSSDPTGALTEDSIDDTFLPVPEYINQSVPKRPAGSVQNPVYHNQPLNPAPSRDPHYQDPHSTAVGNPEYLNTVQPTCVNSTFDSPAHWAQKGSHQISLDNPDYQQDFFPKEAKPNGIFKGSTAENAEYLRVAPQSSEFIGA

T2 sequence (P00533 25-1210): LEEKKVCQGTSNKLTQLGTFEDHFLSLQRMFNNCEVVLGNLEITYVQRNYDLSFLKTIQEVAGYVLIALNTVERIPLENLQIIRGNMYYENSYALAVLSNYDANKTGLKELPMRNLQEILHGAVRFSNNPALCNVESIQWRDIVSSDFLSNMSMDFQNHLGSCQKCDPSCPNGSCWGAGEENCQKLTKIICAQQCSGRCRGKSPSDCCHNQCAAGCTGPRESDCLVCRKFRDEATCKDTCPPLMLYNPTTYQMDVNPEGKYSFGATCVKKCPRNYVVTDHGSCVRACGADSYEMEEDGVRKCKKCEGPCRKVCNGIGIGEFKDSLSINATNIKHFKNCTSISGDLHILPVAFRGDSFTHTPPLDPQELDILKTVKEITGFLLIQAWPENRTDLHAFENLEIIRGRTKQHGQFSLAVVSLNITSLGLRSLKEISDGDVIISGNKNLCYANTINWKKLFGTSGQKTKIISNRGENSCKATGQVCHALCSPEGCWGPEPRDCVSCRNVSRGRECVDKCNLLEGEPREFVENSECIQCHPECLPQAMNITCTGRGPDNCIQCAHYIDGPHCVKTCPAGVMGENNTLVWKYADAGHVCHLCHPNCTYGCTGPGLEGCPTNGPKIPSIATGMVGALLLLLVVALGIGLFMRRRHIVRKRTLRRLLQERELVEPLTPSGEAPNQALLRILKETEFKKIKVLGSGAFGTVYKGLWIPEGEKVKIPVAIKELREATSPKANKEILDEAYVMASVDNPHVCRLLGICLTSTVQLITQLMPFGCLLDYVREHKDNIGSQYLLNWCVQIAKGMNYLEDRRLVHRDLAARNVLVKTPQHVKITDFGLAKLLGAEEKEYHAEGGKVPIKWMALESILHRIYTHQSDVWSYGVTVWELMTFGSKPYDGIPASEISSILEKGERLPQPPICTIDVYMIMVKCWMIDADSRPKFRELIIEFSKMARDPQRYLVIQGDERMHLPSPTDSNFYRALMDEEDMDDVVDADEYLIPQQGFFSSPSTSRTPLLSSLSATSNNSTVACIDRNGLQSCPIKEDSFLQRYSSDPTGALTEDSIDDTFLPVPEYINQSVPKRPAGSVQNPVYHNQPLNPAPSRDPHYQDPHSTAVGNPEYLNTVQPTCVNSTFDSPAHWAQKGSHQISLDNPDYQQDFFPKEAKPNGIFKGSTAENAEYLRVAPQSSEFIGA
T1 sequence (P00533 with tags, fused parts or gaps INS769ASV): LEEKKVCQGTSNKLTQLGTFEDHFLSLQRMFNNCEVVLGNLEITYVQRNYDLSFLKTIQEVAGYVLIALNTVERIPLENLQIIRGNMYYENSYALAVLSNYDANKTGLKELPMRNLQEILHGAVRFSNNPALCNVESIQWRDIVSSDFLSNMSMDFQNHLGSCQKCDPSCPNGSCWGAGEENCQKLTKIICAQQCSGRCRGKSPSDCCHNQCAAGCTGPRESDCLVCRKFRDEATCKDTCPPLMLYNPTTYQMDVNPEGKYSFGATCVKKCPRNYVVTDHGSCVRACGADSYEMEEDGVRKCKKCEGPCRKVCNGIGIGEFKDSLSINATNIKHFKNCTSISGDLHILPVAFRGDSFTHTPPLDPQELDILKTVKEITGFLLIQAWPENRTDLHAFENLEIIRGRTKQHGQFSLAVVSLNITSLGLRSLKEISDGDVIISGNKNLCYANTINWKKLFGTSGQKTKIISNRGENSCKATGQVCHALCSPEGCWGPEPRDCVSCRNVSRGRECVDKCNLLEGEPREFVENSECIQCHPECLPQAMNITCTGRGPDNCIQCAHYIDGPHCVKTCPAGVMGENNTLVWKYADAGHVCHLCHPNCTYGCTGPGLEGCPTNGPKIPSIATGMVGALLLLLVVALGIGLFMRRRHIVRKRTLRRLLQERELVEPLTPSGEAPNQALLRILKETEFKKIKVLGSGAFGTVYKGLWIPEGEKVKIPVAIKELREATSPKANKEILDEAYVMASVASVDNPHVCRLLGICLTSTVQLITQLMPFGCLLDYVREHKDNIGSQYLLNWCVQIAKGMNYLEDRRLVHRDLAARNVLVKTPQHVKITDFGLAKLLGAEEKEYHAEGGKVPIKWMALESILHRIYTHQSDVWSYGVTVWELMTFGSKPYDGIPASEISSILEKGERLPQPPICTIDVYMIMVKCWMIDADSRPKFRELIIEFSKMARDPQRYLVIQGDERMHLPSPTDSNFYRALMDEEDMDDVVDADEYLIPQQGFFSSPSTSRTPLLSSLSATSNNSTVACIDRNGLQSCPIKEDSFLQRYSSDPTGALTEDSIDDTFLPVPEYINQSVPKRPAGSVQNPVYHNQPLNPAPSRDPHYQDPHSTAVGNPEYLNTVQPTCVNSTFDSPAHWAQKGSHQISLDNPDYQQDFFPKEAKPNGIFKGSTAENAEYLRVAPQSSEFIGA
T3 sequence (P00533 with tags, fused parts or gaps DUP767-769): as the sequence (P00533 with tags, fused parts or gaps INS769ASV) above

| Structure (SMILES) | IC50 [1] | IC50 [2] | IC50 [3] | IC50 [4] |
| --- | --- | --- | --- | --- |
| C=CC(=O)N1CCOC[C@H]1COc1cnccc1-c1[nH]c2c(c1Nc1cccc(F)c1OC)C(=O)NCC2 [compound 190] | < 0.1 µM | 0.1 to 1 µM | < 0.1 µM | < 0.1 µM |
| C=CC(=O)N1[C@H]2CC[C@H](C2)[C@@H]1C#Cc1cnccc1-c1[nH]c2c(c1Nc1cccc(Cl)c1OC)C(=O)NCC2 [compound 236, 3-[(3-chloro-2-methoxyphenyl)amino]-2-(3-{2-[(1S,3R,4R)-2-(prop-2-enoyl)-2-azabicyclo[2.2.1]heptan-3-yl]ethynyl}pyridin-4-yl)-1H,5H,6H,7H-pyrrolo[3,2-c]pyridin-4-one] | < 0.1 µM | 0.1 to 1 µM | < 0.1 µM | < 0.1 µM |
| C=CC(=O)N1[C@H](C#Cc2cnccc2-c2[nH]c3c(c2Nc2cccc(Cl)c2OC)C(=O)NCC3)CC[C@@H]1C [compound 240, 3-[(3-chloro-2-methoxyphenyl)amino]-2-(3-{2-[(2S,5S)-5-methyl-1-(prop-2-enoyl)pyrrolidin-2-yl]ethynyl}pyridin-4-yl)-1H,5H,6H,7H-pyrrolo[3,2-c]pyridin-4-one] | < 0.1 µM | < 0.1 µM | < 0.1 µM | < 0.1 µM |
| C=CC(=O)N1[C@H]2CC[C@H](C2)[C@@H]1C#Cc1cnccc1-c1[nH]c2c(c1Nc1cccc(F)c1OC)C(=O)NCC2 [compound 252, 3-[(3-fluoro-2-methoxyphenyl)amino]-2-(3-{2-[(1S,3R,4R)-2-(prop-2-enoyl)-2-azabicyclo[2.2.1]heptan-3-yl]ethynyl}pyridin-4-yl)-1H,5H,6H,7H-pyrrolo[3,2-c]pyridin-4-one] | < 0.1 µM | 0.1 to 1 µM | < 0.1 µM | < 0.1 µM |
| C=CC(=O)N1[C@H](C#Cc2cnccc2-c2[nH]c3c(c2Nc2cccc(F)c2OC)C(=O)NCC3)CC[C@@H]1C [compound 255, 3-[(3-fluoro-2-methoxyphenyl)amino]-2-(3-{2-[(2S,5S)-5-methyl-1-(prop-2-enoyl)pyrrolidin-2-yl]ethynyl}pyridin-4-yl)-1H,5H,6H,7H-pyrrolo[3,2-c]pyridin-4-one] | < 0.1 µM | < 0.1 µM | < 0.1 µM | < 0.1 µM |
| C=CC(=O)N1[C@H](C)CC[C@H]1C#Cc1cnccc1-c1[nH]c2c(c1Nc1cccc(F)c1OC)C(=O)NCC2 [compound 257] | < 0.1 µM | < 0.1 µM | < 0.1 µM | < 0.1 µM |
| C=CC(=O)NC1(C#Cc2cnccc2-c2[nH]c3c(c2Nc2cccc(Cl)c2OC)C(=O)NCC3)CCC1 [compound 261] | < 0.1 µM | 0.1 to 1 µM | < 0.1 µM | < 0.1 µM |
| C=CC(=O)NC1(C#Cc2cnccc2-c2[nH]c3c(c2Nc2cccc(Cl)c2OC)C(=O)NCC3)COC1 [compound 264, N-{3-[2-(4-{3-[(3-chloro-2-methoxyphenyl)amino]-4-oxo-1H,5H,6H,7H-pyrrolo[3,2-c]pyridin-2-yl}pyridin-3-yl)ethynyl]oxetan-3-yl}prop-2-enamide] | < 0.1 µM | 0.1 to 1 µM | < 0.1 µM | < 0.1 µM |
| C=CC(=O)N1CC(C)(C)C[C@@H]1COc1cnccc1-c1[nH]c2c(c1Nc1cccc(Cl)c1OC)C(=O)NCC2 [compound 265] | < 0.1 µM | < 0.1 µM | < 0.1 µM | < 0.1 µM |
| C=CC(=O)N1[C@H](COc2cnccc2-c2[nH]c3c(c2Nc2cccc(Cl)c2OC)C(=O)NCC3)C[C@H]1C [compound 270] | < 0.1 µM | 0.1 to 1 µM | < 0.1 µM | < 0.1 µM |
| C=CC(=O)N1[C@@H](COc2cnccc2-c2[nH]c3c(c2Nc2cccc(Cl)c2OC)C(=O)NCC3)C[C@H]1C [compound 271] | < 0.1 µM | < 0.1 µM | < 0.1 µM | < 0.1 µM |
| C=CC(=O)N1[C@@H](COc2cnccc2-c2[nH]c3c(c2Nc2cccc(Cl)c2OC)C(=O)NCC3)C[C@@H]1C [compound 272] | < 0.1 µM | < 0.1 µM | < 0.1 µM | < 0.1 µM |
| C=CC(=O)N1[C@H](COc2cnccc2-c2[nH]c3c(c2Nc2cccc(Cl)c2OC)C(=O)NCC3)C[C@@H]1C [compound 273] | < 0.1 µM | < 0.1 µM | < 0.1 µM | < 0.1 µM |
| CC#CC(=O)N1CCOC[C@H]1COc1cnccc1-c1[nH]c2c(c1Nc1cccc(F)c1OC)C(=O)NCC2 [compound 292] | 0.1 to 1 µM | > 1 µM | 0.1 to 1 µM | 0.1 to 1 µM |

— patent publication US20230364070A1, “PYRROLO[3,2-C]PYRIDIN-4-ONE DERIVATIVES USEFUL IN THE TREATMENT OF CANCER” (Scorpion Therapeutics, Inc., priority 2020, published 2023)
